Tests used:
Assay type in all cases: cell-based, Mycobacterium tuberculosis
QuinR mutant strains = system: QuinR mutant strains
[1] = system: QuinR-M1 (QcrA Leu356Val)
H37Rv-Rv1777(R145S) = system: H37Rv-Rv1777(R145S)
[2] = system: QuinR-M3 (QcrB Gly175Ser)
[3] = system: QuinR-M2 (QcrB Trp312Gly)
M. tb H37Rv ΔcydKO A317V = system: M. tb H37Rv ΔcydKO A317V
[4] = system: complemented mutant (ΔcydAB)

| SMILES | ATP depletion in QuinR mutants (QuinR mutant strains) | fold-change MIC compared to H37Rv (QuinR-M1) [1] [fold-change] | fold change in the MIC, H37Rv-Rv1777(R145S) (H37Rv-Rv1777(R145S)) [fold] | fold-change MIC compared to H37Rv (QuinR-M3) [2] [fold-change] | fold-change MIC compared to H37Rv (QuinR-M2) [3] [fold-change] | basal respiration after compound addition (M. tb H37Rv ΔcydKO A317V) | static or cidal activity by CFU enumeration [4] |
| --- | --- | --- | --- | --- | --- | --- | --- |
| COc1nc2ccc(Br)cc2cc1[C@@H](c1ccccc1)[C@@](O)(CCN(C)C)c1cccc2ccccc12 [BDQ] | Significant ATP depletion |  |  |  |  |  |  |
| CCSc1nc(NC)c2ccccc2n1 [Compound 11626141] |  | 59 | ≤ 3 | 92 | 1489 |  |  |
| CCNc1nc(SCC)nc2ccccc12 [Compound 11626142] |  | 39 | ≤ 3 | 34 | 1111 |  |  |
| CCSc1nc(NC)c2cccc(F)c2n1 [Compound 11626252] | low-level ATP depletion | 25 | ≤ 3 | 61 | 1470 | did not cause a deviation in basal respiration | bacteriostatic effect is restored |
| CCSc1nc(NC)c2ccc(F)c(F)c2n1 [Compound 11726148] |  | 100 |  | 142 | 224 |  |  |
| CCc1nc2ccc(Cl)cn2c1C(=O)NCc1ccc(N2CCC(c3ccc(OC(F)(F)F)cc3)CC2)cc1 [Compound Q203, Telacebec, reference compound] | Significant ATP depletion | 669 |  | 191 | 742 |  |  |
| Cc1c(OCC(F)(F)F)ccnc1CSc1nc2ccccc2[nH]1 [LPZs, lansoprazole sulfide, reference compound] |  | > 71 |  | 1 | > 71 |  |  |

Reference: publication PMC6999911, “New 2-Ethylthio-4-methylaminoquinazoline derivatives inhibiting two subunits of cytochrome bc1 in Mycobacterium tuberculosis” (PLoS Pathogens, 2020)
